Results from the NIST ThermoML archive (doi:10.1016/j.jct.2013.08.020).
± gives the expanded uncertainty stated by the source.

How the values were obtained:
[1] = refractive index (Na D-line) (dimensionless); conditions: 298.15 K; 101 kPa; Liquid; Standard Abbe refractometry
[2] = Liquid; for vapor or sublimation pressure: Ebulliometric method (Recirculating still)

SMILES	refractive index [1]	vapor or sublimation pressure ([2]; 351.45 K)	mass density ([2]; 298.15 K, 101 kPa, Vibrating tube method)	vapor or sublimation pressure ([2]; 373.15 K)
CCO [ethanol]	1.35924 ± 0.00032	101.3 ± 0.5 kPa	–	–
OCCCO [propan-1,3-diol]	1.43851 ± 0.00037	–	1049.68 ± 0.27 kg/m3	–
O [water]	1.33237 ± 0.00032	–	–	101.3 ± 0.5 kPa
